According to US20100210617A1, “Aryl-Alkylamines And Heteroaryl-Alkylamines As Protein Kinase Inhibitors” (ASTEX THERAPEUTICS LIMITED, priority 2005, published 2010):
Where a name gives a salt, the structure may show the parent alone.

Key:
[1] = molecular target: T1, PKA catalytic domain (Homo sapiens, UniProt P17612); assay: Measurement of PKA kinase inhibitory activity (IC50); type: biochemical; details: 1 nM enzyme, 40 μM ATP/γ33P-ATP, 5 μM peptide substrate […], 20 minutes; read-out: IC50, concentration required to inhibit 50% of the PKA activity
T1 construct: using the PKA catalytic domain from Upstate Biotechnology (#14-440); purchased Upstate Biotechnology 14-440
Protocol: A final concentration of 1 nM enzyme is used in a buffer that includes 20 mM MOPS pH 7.2, 40 μM ATP/γ^33P-ATP and 5 μM substrate. Compounds are added in dimethylsulphoxide (DMSO) solution to a final DMSO concentration of 2.5%. The reaction is allowed to proceed for 20 minutes before addition of excess orthophosphoric acid to quench activity. Unincorporated γ^33P-ATP is then separated from phosphorylated proteins on a Millipore MAPH filter plate. The plates are washed, scintillant is added and the plates are then subjected to counting on a Packard Topcount.

[2] = molecular target: T2, protein kinase B (PKB), fusion protein PKB-PIF (Homo sapiens, UniProt P31751); assay: Measurement of PKB kinase inhibitory activity (IC50); type: biochemical; details: 0.6 nM enzyme, 30 μM ATP/γ33P-ATP, 25 μM AKTide-2T substrate, 20 minutes; read-out: IC50, concentration required to inhibit 50% of the PKB activity
T2 construct: made in house
Protocol: The inhibition of protein kinase B (PKB) activity by compounds can be determined essentially as described by Andjelkovic et al. (Mol. Cell. Biol. 19, 5061-5072 (1999)) but using a fusion protein described as PKB-PIF and described in full by Yang et al (Nature Structural Biology 9, 940-944 (2002)). […] A final concentration of 0.6 nM enzyme is used in a buffer that includes 20 mM MOPS pH 7.2, 30 μM ATP/γ^33P-ATP and 25 μM substrate. Compounds are added in DMSO solution to a final DMSO concentration of 2.5%. The reaction is allowed to proceed for 20 minutes before addition of excess orthophosphoric acid to quench activity. The reaction mixture is transferred to a phosphocellulose filter plate where the peptide binds and the unused ATP is washed away. After washing, scintillant is added and the incorporated activity measured by scintillation counting.
The % inhibition of the PKB activity is calculated and plotted in order to determine the concentration of test compound required to inhibit 50% of the PKB activity (IC50).

T2 sequence (P31751 with tags, fused parts or gaps limits assumed): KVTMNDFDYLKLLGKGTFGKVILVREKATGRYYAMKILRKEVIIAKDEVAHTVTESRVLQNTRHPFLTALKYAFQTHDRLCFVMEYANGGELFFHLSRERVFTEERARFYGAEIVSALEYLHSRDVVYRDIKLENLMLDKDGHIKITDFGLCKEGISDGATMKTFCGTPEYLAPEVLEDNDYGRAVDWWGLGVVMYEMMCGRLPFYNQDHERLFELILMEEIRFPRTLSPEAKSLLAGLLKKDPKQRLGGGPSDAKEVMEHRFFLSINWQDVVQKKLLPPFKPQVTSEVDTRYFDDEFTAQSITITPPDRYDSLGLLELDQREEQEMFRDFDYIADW

SMILES	IC50 [1] [nM]	IC50 [2] [nM]
c1cc(C2(c3ccc4c(c3)OCCO4)CCNCC2)ccc1-c1cn[nH]c1 [Example 83, 4-(2,3-Dihydro-benzo[1,4]dioxin-6-yl)-4-[4-(1H-pyrazol-4-yl)-phenyl]-piperidine]	< 100	< 100
NCCC(c1ccc(-c2cn[nH]c2)cc1)c1ccc(Cl)c(F)c1 (stereo not shown) [Example 1, 3-(4-Chloro-3-fluoro-phenyl)-3-[4-(1H-pyrazol-4-yl)-phenyl]-propylamine]	< 100	< 100
Cc1n[nH]cc1-c1ccc(C2(COc3cccc(-c4nc5ccccc5o4)c3)CCNCC2)cc1 [Example 93, 2-(3-{4-[4-(3-Methyl-1H-pyrazol-4-yl)-phenyl]-piperidin-4-ylmethoxy}-phenyl)-benzooxazole]		< 100
NCC[C@H](c1ccc(-c2cn[nH]c2)cc1)c1ccc(Cl)c(Cl)c1 [Example 2, (R)-3-(3,4-Dichloro-phenyl)-3-[4-(1H-pyrazol-4-yl)-phenyl]-propylamine]		< 100
NCC[C@](O)(c1ccc(Cl)cc1)c1ccc(-c2cn[nH]c2)cc1 [Example 99B, (R)-3-Amino-1-(4-chloro-phenyl)-1-[4-(1H-pyrazol-4-yl)-phenyl]-propan-1-ol]		< 100
COc1ccc(C2(c3ccc(-c4cn[nH]c4)cc3)CCNCC2)cn1 [Example 90, 4-(2-Methoxy-5-pyridin-yl)-4-[4-(1H-pyrazol-4-yl)-phenyl]-piperidine]	< 100	< 1000
NCCC(O)(c1ccc(Cl)cc1)c1ccc(-c2cn[nH]c2)cc1F (stereo not shown) [Example 94, 3-Amino-1-(4-chlorophenyl)-1-[2-fluoro-4-(1H-pyrazol-4-yl)-phenyl]-propan-1-ol-acetic acid salt]	< 100	< 100
NCC(O)(c1ccc(Cl)cc1)c1ccc(-c2cn[nH]c2)cn1 (stereo not shown) [Example 91, 2-Amino-1-(4-chloro-phenyl)-[5-(1H-pyrazol-4-yl)-pyridin-2-yl]-ethanol hydrochloride]	< 100	< 1000
NCCC(O)(c1ccc(-c2cn[nH]c2)cc1)c1ccc(Cl)c(Cl)c1 (stereo not shown) [Example 96, 3-Amino-1-(3,4,-dichlorophenyl)-1-[4-(1H-pyrazol-4-yl)-phenyl]-propan-1-ol]	< 100	< 100
CCc1n[nH]cc1-c1ccc(C(O)(CN)c2ccc(Cl)cc2)cc1 (stereo not shown) [Example 80, 2-Amino-1-(4-chloro-phenyl)-1-[4-(3-ethyl-1H-pyrazol-4-yl)-phenyl]-ethanol]	< 100	< 100
COc1ccc(C2(c3ccc(-c4c[nH]nc4C)cc3)CCNCC2)cc1 [Example 86, 4-(4-Methoxy-phenyl)-4-[4-(3-methyl-1H-pyrazol-4-yl)-phenyl]piperidine dihydrochloride]	< 100	< 100
Clc1ccc(C2(c3ccc(-c4cn[nH]c4C4CC4)cc3)CCNCC2)cc1 [Example 88, 4-(4-Chloro-phenyl)-4-[4-(5-cyclopropyl-1H-pyrazol-4-yl)-phenyl]-piperidine]	< 1000	< 100
NCCC(O)(c1ccc(-c2cn[nH]c2)cc1)c1ccc(Cl)c(F)c1 (stereo not shown) [Example 95, 3-Amino-1-(4-chloro-3-fluoro-phenyl)-1-[4-(1H-pyrazol-4-yl)-phenyl]-propan-1-ol]	< 100	< 100
Clc1cccc(C2(c3ccc(-c4cn[nH]c4)cc3)CCNCC2)c1 [Example 84, 4-(3-Chloro-phenyl)-4-[4-(1H-pyrazol-4-yl)-phenyl]-piperidine]	< 100	< 100
CN(C)c1cccc(C2(c3ccc(-c4cn[nH]c4)cc3)CCNCC2)c1 [Example 89, Dimethyl-(3-{4-[4-(1H-pyrazol-4-yl)-phenyl]-piperidin-4-yl}-phenyl)-amine]	< 1000	< 1000
Clc1ccc(C2(c3ccc(-c4cn[nH]c4)cc3)CCNC2)cc1 (stereo not shown) [Example 81, 4-{4-[3-(4-Chloro-phenyl)-pyrrolidin-3-yl]-phenyl}-1H-pyrazole formate]	< 1000	< 1000
NCCC(O)(c1ccc(Cl)cc1)c1ccc(-c2cn[nH]c2)cc1 (racemic) [Example 92, 3-Amino-1-(4-chloro-phenyl)-1-[4-(1H-pyrazol-4-yl)-phenyl]-propan-1-ol]	< 100	< 100
COc1ccc(-c2cccc(C3(c4ccc(-c5cn[nH]c5)cc4)CCNCC3)c2)cc1 [Example 85, 4-(4′-Methoxy-biphenyl-3-yl)-4-[4-(1H-pyrazol-4-yl)-phenyl]-piperidine dihydrochloride]	< 100	< 1000
COc1ccc(C2(c3ccc(-c4cn[nH]c4)cc3)CNC2)cc1 [Example 82, 4-{-4-[3-(4-Methoxy-phenyl)-azetidin-3-yl]-phenyl}-1H-pyrazole formate]	< 1000	< 1000
COc1cccc(OCC2(c3ccc(-c4c[nH]nc4C)cc3)CCNCC2)c1 [Example 77, 4-(3-Methoxy-phenoxymethyl)-4-[4-(3-methyl-1H-pyrazol-4-yl)-phenyl]-piperidine]	< 1000	< 1000
CCc1[nH]ncc1-c1ccc(C2(c3ccc(Cl)cc3)CCNCC2)cc1 [Example 87, 4-(4-Chloro-phenyl)-4-[4-(5-ethyl-1H-pyrazol-4-yl)-phenyl]-piperidine]	< 1000	< 1000
Cc1n[nH]cc1-c1ccc(C(O)(CN)c2ccc(Cl)cc2)cc1 (stereo not shown) [Example 79, 2-Amino-1-(4-chloro-phenyl)-1-[4-(3-methyl-1H-pyrazol-4-yl)-phenyl]-ethanol]	< 100	< 100
NCC[C@@](O)(c1ccc(Cl)cc1)c1ccc(-c2cn[nH]c2)cc1 [Example 99A, (S)-3-Amino-1-(4-chloro-phenyl)-1-[4-(1H-pyrazol-4-yl)-phenyl]-propan-1-ol]	< 100	< 100
